Reference: the NIST ThermoML archive (doi:10.1021/je100410k)
± gives the expanded uncertainty stated by the source.

Assay: activity coefficient (dimensionless); of the first substance listed, at infinite dilution; xn = mol fraction of the nth substance listed
Details: 101 kPa, Liquid, Chromatography, x1 = 0

| Structure (SMILES) | activity coefficient (338.2 K) | activity coefficient (348.2 K) | activity coefficient (358.2 K) | activity coefficient (368.2 K) | activity coefficient (338.15 K) | activity coefficient (348.15 K) | activity coefficient (358.15 K) | activity coefficient (368.15 K) |
| --- | --- | --- | --- | --- | --- | --- | --- | --- |
| Cc1ccccc1C [1,2-dimethylbenzene] + CCCCn1cc[n+](C)c1.Cc1ccc(S(=O)(=O)[O-])cc1 | 4.07 ± 0.28 | 4.01 ± 0.27 | 3.96 ± 0.27 | 3.93 ± 0.27 | – | – | – | – |
| Cc1cccc(C)c1 [1,3-dimethylbenzene] + CCCCn1cc[n+](C)c1.Cc1ccc(S(=O)(=O)[O-])cc1 | 4.76 ± 0.32 | 4.67 ± 0.32 | 4.63 ± 0.32 | 4.58 ± 0.31 | – | – | – | – |
| Cc1ccc(C)cc1 [1,4-dimethylbenzene] + CCCCn1cc[n+](C)c1.Cc1ccc(S(=O)(=O)[O-])cc1 | 4.73 ± 0.32 | 4.64 ± 0.32 | 4.61 ± 0.31 | 4.56 ± 0.31 | – | – | – | – |
| C=CCCCCC [1-heptene] + CCCCn1cc[n+](C)c1.Cc1ccc(S(=O)(=O)[O-])cc1 | 24.2 ± 1.7 | 22.5 ± 1.5 | 21.5 ± 1.5 | 20.4 ± 1.4 | – | – | – | – |
| C#CCCCCC [1-heptyne] + CCCCn1cc[n+](C)c1.Cc1ccc(S(=O)(=O)[O-])cc1 | 5.13 ± 0.35 | 5.23 ± 0.36 | 5.34 ± 0.36 | 5.43 ± 0.37 | – | – | – | – |
| C#CCCCC [1-hexyne] + CCCCn1cc[n+](C)c1.Cc1ccc(S(=O)(=O)[O-])cc1 | 3.69 ± 0.25 | 3.78 ± 0.26 | 3.86 ± 0.26 | 3.94 ± 0.27 | – | – | – | – |
| C#CCCCCCC [1-octyne] + CCCCn1cc[n+](C)c1.Cc1ccc(S(=O)(=O)[O-])cc1 | 7.12 ± 0.49 | 7.28 ± 0.5 | 7.39 ± 0.5 | 7.15 ± 0.49 | – | – | – | – |
| C=CCCC [1-pentene] + CCCCn1cc[n+](C)c1.Cc1ccc(S(=O)(=O)[O-])cc1 | 13.7 ± 0.9 | 12.6 ± 0.9 | 11.9 ± 0.8 | 11.2 ± 0.8 | – | – | – | – |
| COC(C)(C)C [2-methoxy-2-methylpropane] + CCCCn1cc[n+](C)c1.Cc1ccc(S(=O)(=O)[O-])cc1 | 8.28 ± 0.56 | 7.84 ± 0.53 | 7.58 ± 0.52 | 7.37 ± 0.5 | – | – | – | – |
| CC(C)=O [acetone] + CCCCn1cc[n+](C)c1.Cc1ccc(S(=O)(=O)[O-])cc1 | 1.48 ± 0.1 | 1.46 ± 0.1 | 1.45 ± 0.1 | 1.42 ± 0.09 | – | – | – | – |
| c1ccccc1 [benzene] + CCCCn1cc[n+](C)c1.Cc1ccc(S(=O)(=O)[O-])cc1 | 1.96 ± 0.13 | 1.93 ± 0.13 | 1.93 ± 0.13 | 1.93 ± 0.13 | – | – | – | – |
| C1CCCCCC1 [cycloheptane] + CCCCn1cc[n+](C)c1.Cc1ccc(S(=O)(=O)[O-])cc1 | 17.7 ± 1.2 | 16.3 ± 1.1 | 15.4 ± 1.1 | 14.5 ± 1 | – | – | – | – |
| C1CCCCC1 [cyclohexane] + CCCCn1cc[n+](C)c1.Cc1ccc(S(=O)(=O)[O-])cc1 | 16.3 ± 1.1 | 14.6 ± 1 | 13.4 ± 0.9 | 12.5 ± 0.9 | – | – | – | – |
| C1CCCCCCC1 [cyclooctane] + CCCCn1cc[n+](C)c1.Cc1ccc(S(=O)(=O)[O-])cc1 | 21.3 ± 1.5 | 19.7 ± 1.3 | 18.6 ± 1.3 | 17.6 ± 1.2 | – | – | – | – |
| C1CCCC1 [cyclopentane] + CCCCn1cc[n+](C)c1.Cc1ccc(S(=O)(=O)[O-])cc1 | 11.3 ± 0.8 | 9.9 ± 0.7 | 9.3 ± 0.6 | 9 ± 0.6 | – | – | – | – |
| CCCCCCCCCC [decane] + CCCCn1cc[n+](C)c1.Cc1ccc(S(=O)(=O)[O-])cc1 | 119 ± 8.1 | 106 ± 7.3 | 98.3 ± 6.7 | 90.8 ± 6.2 | – | – | – | – |
| CCOCC [diethyl ether] + CCCCn1cc[n+](C)c1.Cc1ccc(S(=O)(=O)[O-])cc1 | 6.57 ± 0.45 | 6.36 ± 0.43 | 6.16 ± 0.42 | 5.93 ± 0.4 | – | – | – | – |

| Structure (SMILES) | activity coefficient (338.2 K) | activity coefficient (348.2 K) | activity coefficient (358.2 K) | activity coefficient (368.2 K) | activity coefficient (338.15 K) | activity coefficient (348.15 K) | activity coefficient (358.15 K) | activity coefficient (368.15 K) |
| --- | --- | --- | --- | --- | --- | --- | --- | --- |
| CCCOCCC [dipropyl ether] + CCCCn1cc[n+](C)c1.Cc1ccc(S(=O)(=O)[O-])cc1 | 15.5 ± 1.1 | 15.2 ± 1 | 14.2 ± 1 | 13.6 ± 0.9 | – | – | – | – |
| CCO [ethanol] + CCCCn1cc[n+](C)c1.Cc1ccc(S(=O)(=O)[O-])cc1 | 0.359 ± 0.033 | 0.357 ± 0.033 | 0.358 ± 0.033 | 0.358 ± 0.033 | – | – | – | – |
| CCc1ccccc1 [ethylbenzene] + CCCCn1cc[n+](C)c1.Cc1ccc(S(=O)(=O)[O-])cc1 | 4.45 ± 0.3 | 4.4 ± 0.3 | 4.36 ± 0.3 | 4.32 ± 0.29 | – | – | – | – |
| CCCCCCC [heptane] + CCCCn1cc[n+](C)c1.Cc1ccc(S(=O)(=O)[O-])cc1 | – | – | – | – | 48.1 ± 3.3 | 42.2 ± 2.9 | 39.2 ± 2.7 | 36.6 ± 2.5 |
| C=CCCCC [hex-1-ene] + CCCCn1cc[n+](C)c1.Cc1ccc(S(=O)(=O)[O-])cc1 | 18 ± 1.2 | 16.6 ± 1.1 | 15.7 ± 1.1 | 14.9 ± 1 | – | – | – | – |
| CCCCCC [hexane] + CCCCn1cc[n+](C)c1.Cc1ccc(S(=O)(=O)[O-])cc1 | – | – | – | – | 36.3 ± 2.5 | 31.5 ± 2.2 | 29.2 ± 2 | 27.6 ± 1.9 |
| CO [methanol] + CCCCn1cc[n+](C)c1.Cc1ccc(S(=O)(=O)[O-])cc1 | 0.217 ± 0.029 | 0.219 ± 0.029 | 0.221 ± 0.029 | 0.223 ± 0.029 | – | – | – | – |
| CCCCCCCCC [nonane] + CCCCn1cc[n+](C)c1.Cc1ccc(S(=O)(=O)[O-])cc1 | 86.1 ± 5.9 | 77.5 ± 5.3 | 71.3 ± 4.9 | 66.5 ± 4.6 | – | – | – | – |
| C=CCCCCCC [oct-1-ene] + CCCCn1cc[n+](C)c1.Cc1ccc(S(=O)(=O)[O-])cc1 | 33.1 ± 2.3 | 31 ± 2.1 | 29.5 ± 2 | 28.2 ± 1.9 | – | – | – | – |
| CCCCCCCC [octane] + CCCCn1cc[n+](C)c1.Cc1ccc(S(=O)(=O)[O-])cc1 | 63.9 ± 4.4 | 57.7 ± 4 | 53 ± 3.6 | 49.6 ± 3.4 | – | – | – | – |
| CCCC(C)=O [pentan-2-one] + CCCCn1cc[n+](C)c1.Cc1ccc(S(=O)(=O)[O-])cc1 | 2.68 ± 0.18 | 2.64 ± 0.18 | 2.61 ± 0.18 | 2.58 ± 0.18 | – | – | – | – |
| CCC(=O)CC [pentan-3-one] + CCCCn1cc[n+](C)c1.Cc1ccc(S(=O)(=O)[O-])cc1 | 2.68 ± 0.18 | 2.65 ± 0.18 | 2.63 ± 0.18 | 2.6 ± 0.18 | – | – | – | – |
| CCCO [propan-1-ol] + CCCCn1cc[n+](C)c1.Cc1ccc(S(=O)(=O)[O-])cc1 | 0.437 ± 0.035 | 0.434 ± 0.035 | 0.437 ± 0.035 | 0.437 ± 0.035 | – | – | – | – |
| C1CCOC1 [tetrahydrofuran] + CCCCn1cc[n+](C)c1.Cc1ccc(S(=O)(=O)[O-])cc1 | 1.88 ± 0.13 | 1.87 ± 0.13 | 1.86 ± 0.13 | 1.85 ± 0.12 | – | – | – | – |
| c1ccsc1 [thiophene] + CCCCn1cc[n+](C)c1.Cc1ccc(S(=O)(=O)[O-])cc1 | 1.11 ± 0.07 | 1.13 ± 0.07 | 1.14 ± 0.07 | 1.16 ± 0.07 | – | – | – | – |
| Cc1ccccc1 [toluene] + CCCCn1cc[n+](C)c1.Cc1ccc(S(=O)(=O)[O-])cc1 | 3.03 ± 0.21 | 3.01 ± 0.2 | 2.99 ± 0.2 | 2.97 ± 0.2 | – | – | – | – |
| O [water] + CCCCn1cc[n+](C)c1.Cc1ccc(S(=O)(=O)[O-])cc1 | 0.191 ± 0.029 | 0.196 ± 0.029 | 0.201 ± 0.029 | 0.207 ± 0.029 | – | – | – | – |
